In US11246873B2, “Directed differentiation of oligodendrocyte precursor cells to a myelinating cell fate” (The Scripps Research Institute, priority 2011, dated 2022):
Entries after “also recorded” stand apart in the source; their conditions may differ.

Key:
[1] = system: rat optic nerve derived OPCs; experiment: High content imaging assay of OPC differentiation (MBP immunostaining, OPERA); type: cell-based; conditions: OPCs in differentiation medium (2 ng/ml PDGF), 6 days
Procedure: FIG. 1A-C. […] The calculated EC50 values were determined using appropriate Graphpad Prism 5.0 curve fitting software. […] OPCs were plated in 384 well plates at 1000 cells per well in OPC media containing basal PDGF-αα (2 ng/mL) and treated with serial dilutions of compounds. Following six days of compound treatment, cells were fixed and subjected to immunofluorescence analysis using anti-myelin basic protein (MBP) antibody. Image acquisition and quantification of MBP staining was performed using the OPERA imaging system.
FIG. 11A-B. Screen to identify inducers of OPC differentiation. (A) OPCs were maintained as proliferating A2B5-positive cells under basal growth conditions (Neurobasal medium, B27 supplement without Vitamin A, non-essential amino acids, L-Glutamine, 30 ng/ml PDGF). OPCs were plated in basal differentiation media (Neurobasal medium, B27 supplement without Vitamin A, non-essential amino acids, L-Glutamine, 2 ng/ml PDGF), treated with DMSO (<0.1%) or thyroid hormone (1 uM), fixed after 6 days in culture, and stained using antibodies for CNP, O4, or MBP. […] (B) Screen strategy using A2B5 positive OPCs cultured under basal differentiation conditions and treated with compounds for 6 days to identify small molecules that induce the differentiation of OPCs to mature, MBP expressing oligodendrocytes.
FIG. 12A-B. Primary hit confirmation. (A) Dose response assay used to confirm primary screening hits and determine potency (EC50). (EC50) is defined as the concentration that results in a half maximal increase in the percentage of total cells that express MBP as detected by immunostaining. […] Cells were fixed and immunostained using antibodies for MBP. Error bars represent standard deviations from 3 replicate experiments. […]
FIG. 21. […] OPCs were plated in differentiation medium (2 ng/ml PDGF) and treated with various concentrations of compounds for 6 days. Cells were fixed and immunostained for MBP.
A large-scale small molecule screen was conducted to identify small molecules that promote the differentiation of oligodendrocyte precursor cells (OPCs) to a mature myelinating fate. High content imaging was used to detect in-well differentiation of rat optic nerve derived OPCs. Rat optic nerve derived OPCs were expanded en masse in OPC media containing 30 ng/mL PDGFαα. To screen for small molecule inducers of OPC differentiation, OPCs (cultured for fewer than 15 passages) were plated in poly-D-lysine coated 384 well culture plates in OPC Media containing 2 ng/mL PDGFαα and immediately treated with compounds at a final concentration of 6 μM (0.6% DMSO). Compound treated cells were incubated at 37° C., 5% CO2 for 6 days. At the end of 6 days, cells were fixed in 4% paraformaldehyde and subjected to immunofluorescence analysis. Anti-Myelin Basic Protein monoclonal antibody (a.a. 129-138, clone 1 monoclonal antibody, Millipore) (1:1000 dilution) in blocking buffere solution (3% BSA, 0.3% Triton X-100 in PBS) was added to fixed and washed cells and incubated at 4° C. overnight.

OPCs [2] = experiment: qRT-PCR of MBP and MOG expression in compound treated OPCs; type: cell-based, rat; conditions: EC90 concentrations, 6 days
Excerpt: FIG. 2A-C. […] (A) Western blot analysis of OPCs treated with compounds at EC90 concentrations for 6 days. Total protein was isolated from cell pellets and probed for myelin basic protein (MBP) and myelin oligodendrocyte glycoprotein (MOG) using specific antibodies. (B-C) Quantitative RT-PCR (qRT-PCR) analysis of OPCs treated with compounds at EC90 concentrations for 6 days. Total RNA was isolated from cell pellets and reverse transcribed. MBP and MOG expression was quantified using specific probes and Taqman-based qRT-PCR. Expression was normalized to the internal controls β-actin and GAPDH. Fold change in gene expression over DMSO treated control cells is plotted for MBP (B) and MOG (C).

OPCs [3] = experiment: Immunofluorescence analysis of mature oligodendrocyte markers (MBP, MOG, CNP, GalC, O1, O4); type: cell-based, rat; conditions: OPCs treated 6 days
Excerpt: FIG. 3. Immunofluorescence analysis of compound treated OPCs using mature oligodendrocyte specific markers. Immunofluorescence staining using specific antibodies for MBP, MOG, and 2′,3′-cyclic nucleotide 3′ phosphodiesterase (CNP). Nuclei were identified using DAPI.
FIG. 4. Immunofluorescence analysis of compound treated OPCs using mature oligodendrocyte specific markers. Immunofluorescence staining using specific antibodies for galactocereberoside (GalC), oligodendrocyte marker O1 (O1) and oligodendrocyte marker O4 (O4). Nuclei were identified using DAPI.
FIG. 14. Compound treatment induces the differentiation of OPCs to mature oligodendrocytes. […] Cells were fixed and immunostained for MBP, MOG, CNP, GalC, O1, or O4.
Immunofluorescence was also used to confirm that the hits were able to induce oligodendrocyte maturation.

Compound | induction of OPC differentiation (MBP staining) [1] | induction of MBP expression (qRT-PCR) over DMSO (OPCs [2]) | induction of MOG expression (qRT-PCR) over DMSO (OPCs [2]) | markers of mature myelinating oligodendrocytes (MBP, MOG, CNP, GalC, O1, O4) by immunofluorescence (OPCs [3])
CN1[C@@H]2CC[C@H]1C[C@@H](OC(c1ccccc1)c1ccccc1)C2 [benztropine] | promote OPC differentiation; also recorded: dose dependent activity | two-fold | two-fold | confirmed the presence of multiple markers of mature myelinating oligodendrocytes; also recorded: expression of mature oligodendrocyte markers
CN1CCN(CCCN2c3ccccc3Sc3ccc(C(F)(F)F)cc32)CC1 [trifluoperazine] | promote OPC differentiation | two-fold | two-fold | confirmed the presence of multiple markers of mature myelinating oligodendrocytes
